What was measured:
[1] = Stock solution stability (bioanalytical stock solutions); type: physicochemical; conditions: polypropylene container
[2] = Nonclinical PK/PD study of low-dose dasatinib in NS and NSML mice for hypertrophic cardiomyopathy; conditions: mouse, in vivo, doses 0.05 mg/kg to 0.5 mg/kg, based on exposure-response relationship, read-out: suggested potential target AUC for cardiac rescue
Experimental: A nonclinical study in mice was conducted to determine the PK and PD properties of a low-dose treatment of dasatinib in NS and NSML mice for the treatment of Hypertrophic cardiomyopathy (HCM). The goal was to establish in the same mouse model concurrent PK data and to correlate that with the endpoints of HCM using qPCR and immunoblotting. PK properties obtained from these mice were determined by Kana Mizuno and Alexander A. Vinks at Cincinnati Children's Hospital Medical Center. Dasatinib PK profiles and exposures (expressed as area under the concentration time curve; AUC) at doses ranging from 0.05 mg/kg to 0.5 mg/kg were estimated in NS and NSML mice. Based on the exposure-response relationship, potential target exposures to protect cardiac function were identified.

| Compound | Stock Stability ([1]; storage temperature 22° C.) | Stock Stability ([1]; storage temperature −20° C.) | AUC [2] |
| --- | --- | --- | --- |
| [2H]C1([2H])N(CCO)C([2H])([2H])C([2H])([2H])N(c2cc(Nc3ncc(C(=O)Nc4c(C)cccc4Cl)s3)nc(C)n2)C1([2H])[2H] [Dasatinib-D8] | 25 h | 1010 h |  |
| Cc1nc(Nc2ncc(C(=O)Nc3c(C)cccc3Cl)s2)cc(N2CCN(CCO)CC2)n1 [Dasatinib] | 25 h | 1010 h | 12 to 24 ng·h/mL |
